From US12396996B2, “Compounds, pharmaceutical compositions, and methods of their use in reversing cancer chemoresistance” (priority 2019, dated 2025)

Experiments:
[1] = test system: patient-derived TMZ-resistant glioblastoma (GBM) cell line; assay: Spheroid cell confluence, co-treatment with TMZ; assay type: cell-based, human
Description: FIGS. 13A and 13B depict the response of a patient-derived TMZ-resistant glioblastoma (GBM) cell line to TMZ (Temozolomide). The cells were grown in suspension into spheroids after which they were treated with TMZ (100 uM), chaetocin (50 uM) or both (TMZ 100 uM, chaetocin 50 uM were administered at the same time). Cell confluence, an assay for spheroid size, was measured. The top graph depicts the response of the TMZ-resistant cell line to TMZ (100 uM) alone. Bottom graph depicts the response of the TMZ-resistant cell line to single agent and double agent treatments.
FIG. 14 depicts the response of a patient-derived TMZ-resistant glioblastoma (GBM) cell line to TMZ (Temozolomide). The cells were grown in suspension into spheroids after which they were treated with TMZ (50, 100, 200, 400 μM), chaetocin (50 uM) or both (TMZ at 50, 100, 200, or 400 μM together with chaetocin at 50 uM). […] Cell confluence, an assay for spheroid size, was measured.
A short exposure to chaetocin is sufficient to cause an epigenetic change, reprogramming mesenchymal, TIC-rich cancer cells into an epithelial fate while sensitizing them to chemotherapy. […] Cell confluence, an assay for spheroid size, was measured to determine if cell growth was inhibited (flat curve) or spheroid sizes were reduced (indicator of cell death and spheroid shrinkage). […]

[2] = test system: HMLE-TWIST cells; assay: E-cadherin (E-cad) level after chaetocin pulse; assay type: cell-based, human; settings: 80 nM or 200 nM for 15 hours, then 1, 2, 4 days chaetocin-free
Description: Levels of an epithelial marker, E-cadherin (E-cad) were assayed at 15H, 1 D, 2D, and 4D after chaetocin treatment and the fraction of E-cad positive cells was quantified.
To molecularly test whether chaetocin treatment converts mesenchymal cells into epithelial cells, HMLE-TWIST cells were treated with a pulse of chaetocin for 15 hours (15H), washed and then incubated in chaetocin-free media for 1 day (1D), 2 days (2D), and 4 days (4D). Levels of the ubiquitous epithelial marker E-cadherin (E-cad) was assayed using Western blots throughout the experiment.

[3] = test system: HMLE-SNAIL spheroids; assay: 3-D tumor spheroid assay (Sytox/DAPI staining); assay type: cell-based, human; settings: Sytox staining
Description: FIGS. 1F-1I show the results of a 3-D tumor spheroid assay formed by the chemotherapy-resistant breast cancer cell line, HMLE-SNAIL. […] Tumor spheroids are a model of real in vivo tumors, as they form a 3-D cell mass in which the hypoxic and often nutrient depleted microenvironment at the center of the tumor is enriched with mesenchymal, chemotherapy-resistant TIC cells. […] By staining spheroids with Sytox, which stains dead cells green, and DAPI, which stains the nuclei of all cells (living or dead), total fraction of dead cells is calculated. Also, the location of dead cells within the sphere is visualized with Sytox (green) staining. The results of FIGS. 1F-1I indicate that chaetocin a selective and potent killer of inner cells of the spheroids, enriched with mesenchymal, chemotherapy-resistant TIC cells, compared to other compounds tested. FIGS. 1J-1K show the results of a tumorsphere assay performed with TICs grown on serum-free, non-adherent culture conditions. […] The results of FIGS. 1J-1K indicate that chaetocin is effective in eliminating TICs in a dose dependent-manner.
To determine whether chaetocin affects TIC death in a tumor-like environment, 3-D tumor spheroid assays were performed in the presence or absence of chaetocin. Tumor spheroids are a model of a real tumor, as they form a 3-D cell mass similar to tumors in vivo. The local microenvironment of a spheroid recapitulates many of the in vivo properties of tumor. Importantly, the hypoxic and often nutrient depleted microenvironment at the center of the tumor is favorable for converting epithelial, non-TIC, chemotherapy-sensitive cancer cells into mesenchymal, TIC-rich, chemotherapy-resistant cells. […] Pharmacological agents were added and cell viability was calculated by staining cells with Sytox, which stains dead cells green, and DAPI, which stains the nuclei of all cells (living or dead). to provide the total cell number. Using this method, the total fraction of dead cells was calculated and compared between different drug conditions. More importantly, the location of dead cells within the sphere is visualized with Sytox (green) staining. FIGS. 1G-1I show fluorescence images of tumor spheroids under control conditions (no treatment; FIG. 1G), under treatment with various experimental chemotherapeutic agents (Y-27632, LY-450139, and IWP-L6 (Wnt); FIG. 1H), and with chaetocin treatment (FIG. 1I). […] This family of kinases are thought to be important for survival of TIC cells. IWP-L6 is an inhibitor of Wnt pathway—a pathway important for TIC cell survival and formation. LY-450139 is a NOTCH pathway inhibitor. NOTCH is also important for TIC cell viability and survival. […]

[4] = test system: HMLE-TWIST cells; settings: 0.3 μM, 15 hours, versus untreated;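 further: transcript levels measured by RNA-seq of total RNA extracted from treated cells, given as log2 change relative to untreated cells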
Description: To determine whether the transcriptional changes associated with chaetocin treatment support this apparent change in cell state (reversal of mesenchymal fate), RNA-seq experiments were performed on cells treated for 15 hours with 0.3 μM of chaetocin after which total RNA was extracted and subjected to deep sequencing.

[5] = test system: HMLE-TWIST cells; assay: CD44/CD24 FACS analysis after chaetocin pulse and washout; assay type: cell-based, human
Description: Cultured mesenchymal, TIC-rich HMLE-TWIST cells were treated with increasing concentrations of chaetocin for 2 days, washed and then incubated in chaetocin-free media for two days. CD44/CD24 FACS analyses were performed either immediately or two days after chaetocin removal.
CD44/CD24 FACS analyses either were performed either immediately or 6 days after chaetocin removal.
To determine whether a short pulse of the Suv39H1/H2 inhibitor, chaetocin, is sufficient to bring about an epigenetic change, cultured HMLE-TWIST cells (also referred to as ‘HMLE-TWIST TICs’ or ‘TICs’) were exposed to different doses of chaetocin for two days, followed by washout, and replacement with regular media. Cells were tracked for their phenotypic fate (e.g., CD44/CD24 marker expression) for another two or 6 days in chaetocin-free media. In this cell line, high CD44 and low CD24 expression indicate TIC cell populations. Cells that express CD24 are considered non-TICs. […] Next, to determine whether the epigenetic change persists for periods longer than two days, a separate experiment was performed in which HMLE-TWIST cells were treated with chaetocin for two days, followed by FACS analysis of CD24/CD44 expression either immediately after or 6 days after, as schematized in the top panel of FIG. 3M.

CN1C(=O)[C@@]23C[C@]4([C@]56C[C@@]78SS[C@](CO)(C(=O)N7[C@H]5Nc5ccccc56)N(C)C8=O)c5ccccc5N[C@@H]4N2C(=O)[C@@]1(CO)SS3 [chaetocin]
sensitization to TMZ (cell confluence / spheroid size) ([1]; chaetocin 50 uM with TMZ 100 uM added at the same time): sensitization of the TMZ-resistant cell line to TMZ treatment
sensitization to TMZ (cell confluence / spheroid size) ([1]; chaetocin 50 uM with TMZ 50, 100, 200, 400 uM added at the same time): sensitizes the cells to TMZ treatment versus single treatment with TMZ or chaetocin
E-cadherin level (mesenchymal to epithelial conversion) [2]: stable epigenetic change in cell phenotype converting mesenchymal cancer cells into epithelial ones
location of dead cells within spheroid [3]: preferentially and effectively kills the inner spheroid cells
Log2foldChange ALDH1A1 [4]: −2.01
Log2foldChange BIRC5 (survivin-1) [4]: 0.491
Log2foldChange CD24 [4]: −0.912
Log2foldChange CDH1 (E-cadherin) [4]: 4.25
Log2foldChange CLDN2 [4]: 6.00
Log2foldChange CLDN4 [4]: 3.68
Log2foldChange CLDN6 [4]: 7.30
Log2foldChange CLDN9 [4]: 4.59
Log2foldChange CLDN16 [4]: 2.77
Log2foldChange CLDN23 [4]: 1.18
Log2foldChange COL2A1 [4]: 4.34
Log2foldChange CRB1 [4]: 9.40
Log2foldChange CST6 [4]: 2.12
Log2foldChange Errb2 [4]: −0.829
Log2foldChange GJA1 [4]: −0.627
Log2foldChange GLI-2 [4]: −0.941
Log2foldChange KRT7 [4]: 1.59
Log2foldChange KRT8 [4]: 1.30
Log2foldChange KRT18 [4]: 1.95
Log2foldChange KRT19 [4]: 4.46
Log2foldChange KRT34 [4]: 5.49
Log2foldChange KRT80 [4]: 1.24
Log2foldChange KRT81 [4]: 1.47
Log2foldChange KRT86 [4]: 3.10
Log2foldChange LAMB1 [4]: −1.05
Log2foldChange MMP14 [4]: −1.14
Log2foldChange NRF-2 [4]: −0.862
Log2foldChange Nanog [4]: −2.21
Log2foldChange O ct4 [4]: −1.76
Log2foldChange PTEN [4]: −0.780
Log2foldChange SNAI2 [4]: −0.623
Log2foldChange TWIST1 [4]: −0.549
Log2foldChange WISP1 [4]: −1.06
Log2foldChange ZEB1 [4]: −0.666
CD44/CD24 phenotype (TIC to non-TIC) ([5]; 0.1, 0.15, 0.2, 0.5 μM for two days, immediately after treatment): converts TICs into non-TICs in a dose dependent manner
persistence of TIC to non-TIC conversion ([5]; two or 6 days in chaetocin-free media): persist for up to six days after chaetocin removal
